Measurements: patent publication US10520509B2 (Washington State University, priority 2016, dated 2019)

Key:
[1] = test system: HeLa cells; assay: Fluorescence imaging of H2S and H2Sn with DDP probe in cells; type: cell-based; conditions: probe 20 μm 30 min
Protocol: (§1) In another embodiment the DDP probes has been designed to visuals exogenous sulfur species in a living system. […] Additionally, the selectivity of the probes can be seen in FIG. 10. […] The probe (20 μm) was applied to the cells for 30 minutes, after which the extracellular probe was washed off and only a weak fluorescence was observed.
The cells were grown on glass-bottom culture dishes (Corning Inc.) in DMEM supplemented with 10% (v/v) FBS, penicillin (100 U/mL) and streptomycin (100 μg/mL) at 37° C. under a humidified atmosphere containing 5% CO2. Before use, the adherent cells were washed one time with FBS-free DMEM. […] After removal of excess probe and washed with PBS (pH 7.4), the cells were incubated with 30 μM Na2S2 or 30 μM Na2S4 at room temperature for 20 min in PBS buffer (pH 7.4, containing 100 μM CTAB). Cell imaging was carried out after removal of the culture solution. For images of CSE-overexpressed COS7 cells.

[2] = test system: HeLa cells; assay: Cell viability assay (CCK-8) of DDP probe; type: cell-based; conditions: 10-100 μM, 6 h
Protocol: as §1
HeLa cells were cultured in DMEM high glucose medium supplemented with 10% fetal bovine serum (FBS) at 37° C. under an atmosphere of 5% CO2 and 95% air. The cells were then inoculated in 96-well plates and cultured overnight. DDP-1 in FBS-free medium were administered and cultured for 6 h. The cell viability was measured by cell counter kit (CCK)-8. The absorbance at 450 nm was measured with a microplate reader. Optical density (OD) of the 9 wells in the indicated groups was used to calculate percentage of cell viability according to the formula below: Percentage of cell viability=OD treatment group/OD control group×100% Cell Culture and Fluorescence Imaging

[N-]=[N+]=Nc1ccc2c(CC(=O)N3CCN(c4ccc5c(c4)Oc4cc(OC(=O)c6ccccc6SC(=O)c6ccccc6)ccc4C54OC(=O)c5ccccc54)CC3)cc(=O)oc2c1 (stereo not drawn) [DDP-1]
fluorescence in cells after Na2S treatment ([1]; Na2S 100 μm, blue and green channel): apparent fluorescence enhancement
fluorescence in cells after Na2S2 or in situ generated H2Sn ([1]; blue vs green channel): blue channel decreased with a coinstantaneous increase in the green channel
cytotoxicity (cell viability) [2]: low cytotoxicity
